# Source: PMC12238723, “Phase I Clinical Trial of CVL218, a Novel PARP1/2 Inhibitor, in Patients with Advanced Solid Tumors” (MedComm, 2025)
# How the values were obtained:
# [1] = Plasma PK after multiple oral doses (Cycle 1 Day 28); type: in vivo, patients
# Protocol: The period during which patients received a single dose is designated as cycle 0 (C0), lasting 72 h. After this period, patients begin multiple dosing, referred to as cycle 1 (C1). An initial accelerated titration design was employed for the three lowest dose groups, and the “3+3” design was applied starting with the 300 mg BID cohort. […] Single-dose and multiple-dose PK parameters included C max, T max, elimination half-life (T 1/2), AUC0- t , AUC0-inf, oral clearance (CL/F), and apparent volume of distribution (V z/F) for CVL218. Tumor response was assessed per RECIST 1.1. ORR was defined as proportion of patients with a CR or PR on at least one visit, while DCR was defined as proportion of patients with a CR or PR or SD. PFS was defined as the time from the first dose of either drug to investigator assessed radiologic PD or to death of any cause. PFS would be censored at the time of last tumor assessment. Subjects who received at least one dose of CVL218 with postadministration safety records were included in safety analysis set. Subjects who received at least one dose of CVL218 with at least one evaluable PK parameter were included in PK analysis set. Per-protocol set were used for efficacy analysis. Descriptive statistics of safety were presented per CTCAE v5.0. The PK parameters T max and T 1/2 were shown as the median (min, max) and mean ± SD, respectively. A two-sided p < 0.05 was considered to indicate statistical significance. Statistical analysis was performed by using GraphPad prism 8.0.2 and R-4.3.3.
# [2] = test system: human ether‐a‐go‐go‐related gene channel; set-up: method as in PMID 27926532, PMID 36283983; settings: cited from earlier work
# [3] = multiple doses C1D28, 50mg BID, n 1
# [4] = multiple doses C1D28, 100mg BID, n 1
# [5] = multiple doses C1D28, 200mg BID, n 1
# [6] = multiple doses C1D28, 350mg BID, n 4
# [7] = multiple doses C1D28, 500mg BID, n 4
# [8] = multiple doses C1D28, 600mg BID, n 4
# [9] = multiple doses C1D28, 700mg BID, n 6
# [10] = multiple doses C1D28, 850mg BID, n 5
compound,measurement,setting,value
CNCc1ccc(-c2cc3cc(F)cc(C(N)=O)c3o2)cc1.Cl [CVL218],"AUC0-24, Geometric Mean",[1]; [3],70.9 ng·h/mL
same,"AUC0-t, Geometric Mean",[1]; [3],77.9 ng·h/mL
same,"AUC_TAU, Mean",[1]; [3],70.9 ng·h/mL
same,"Cavgss, Mean",[1]; [3],5.91 ng/mL
same,"Cl/F, Geometric Mean",[1]; [3],705000.0 mL/h
same,"Cmax, Geometric Mean",[1]; [3],15.6 ng/mL
same,"Cminss, Mean",[1]; [3],0 ng/mL
same,"Vz/F, Geometric Mean",[1]; [3],6870000.0 mL
same,"AUC0-24, Geometric Mean",[1]; [4],822.0 ng·h/mL
same,"AUC0-t, Geometric Mean",[1]; [4],1930.0 ng·h/mL
same,"AUC_TAU, Mean",[1]; [4],822 ng·h/mL
same,"Cavgss, Mean",[1]; [4],68.5 ng/mL
same,"Cl/F, Geometric Mean",[1]; [4],122000.0 mL/h
same,"Cmax, Geometric Mean",[1]; [4],148.0 ng/mL
same,"Cminss, Mean",[1]; [4],38 ng/mL
same,"Vz/F, Geometric Mean",[1]; [4],1750000.0 mL
same,"AUC0-24, Geometric Mean",[1]; [5],808.0 ng·h/mL
same,"AUC0-t, Geometric Mean",[1]; [5],1360.0 ng·h/mL
same,"AUC_TAU, Mean",[1]; [5],808 ng·h/mL
same,"Cavgss, Mean",[1]; [5],67.3 ng/mL
same,"Cl/F, Geometric Mean",[1]; [5],248000.0 mL/h
same,"Cmax, Geometric Mean",[1]; [5],156.0 ng/mL
same,"Cminss, Mean",[1]; [5],28.6 ng/mL
same,"Vz/F, Geometric Mean",[1]; [5],4780000.0 mL
same,"AUC0-24, Geometric Mean",[1]; [6],2230.0 ng·h/mL
same,"AUC0-inf, Geometric Mean",[1]; [6],5860.0 ng·h/mL
same,"AUC0-t, Geometric Mean",[1]; [6],4750.0 ng·h/mL
same,"AUC_TAU, Mean",[1]; [6],2170 ng·h/mL
same,"Cavgss, Mean",[1]; [6],181 ng/mL
same,"Cl/F, Geometric Mean",[1]; [6],157000.0 mL/h
same,"Cmax, Geometric Mean",[1]; [6],313.0 ng/mL
same,"Cminss, Mean",[1]; [6],72.2 ng/mL
same,"T1/2, Mean",[1]; [6],5.4 h
same,"Vz/F, Geometric Mean",[1]; [6],1400000.0 mL
same,"AUC0-24, Geometric Mean",[1]; [7],3210.0 ng·h/mL
same,"AUC0-inf, Geometric Mean",[1]; [7],6920.0 ng·h/mL
same,"AUC0-t, Geometric Mean",[1]; [7],6830.0 ng·h/mL
same,"AUC_TAU, Mean",[1]; [7],3870 ng·h/mL
same,"Cavgss, Mean",[1]; [7],323 ng/mL
same,"Cl/F, Geometric Mean",[1]; [7],158500.0 mL/h
same,"Cmax, Geometric Mean",[1]; [7],562.5 ng/mL
same,"Cminss, Mean",[1]; [7],177 ng/mL
same,"T1/2, Mean",[1]; [7],4.1 h
same,"Vz/F, Geometric Mean",[1]; [7],1380000.0 mL
same,"AUC0-24, Geometric Mean",[1]; [8],1880.0 ng·h/mL
same,"AUC0-inf, Geometric Mean",[1]; [8],7700.0 ng·h/mL
same,"AUC0-t, Geometric Mean",[1]; [8],2560.0 ng·h/mL
same,"AUC_TAU, Mean",[1]; [8],2810 ng·h/mL
same,"Cavgss, Mean",[1]; [8],234 ng/mL
same,"Cl/F, Geometric Mean",[1]; [8],318000.0 mL/h
same,"Cmax, Geometric Mean",[1]; [8],311.0 ng/mL
same,"Cminss, Mean",[1]; [8],118 ng/mL
same,"T1/2, Mean",[1]; [8],5.1 h
same,"Vz/F, Geometric Mean",[1]; [8],2440000.0 mL
same,"AUC0-24, Geometric Mean",[1]; [9],3830.0 ng·h/mL
same,"AUC0-inf, Geometric Mean",[1]; [9],4170.0 ng·h/mL
same,"AUC0-t, Geometric Mean",[1]; [9],3830.0 ng·h/mL
same,"AUC_TAU, Mean",[1]; [9],4450 ng·h/mL
same,"Cavgss, Mean",[1]; [9],371 ng/mL
same,"Cl/F, Geometric Mean",[1]; [9],183000.0 mL/h
same,"Cmax, Geometric Mean",[1]; [9],660.0 ng/mL
same,"Cminss, Mean",[1]; [9],127 ng/mL
same,"T1/2, Mean",[1]; [9],3.9 h
same,"Vz/F, Geometric Mean",[1]; [9],1090000.0 mL
same,"AUC0-24, Geometric Mean",[1]; [10],5150.0 ng·h/mL
same,"AUC0-inf, Geometric Mean",[1]; [10],2940.0 ng·h/mL
same,"AUC0-t, Geometric Mean",[1]; [10],5150.0 ng·h/mL
same,"AUC_TAU, Mean",[1]; [10],5150 ng·h/mL
same,"Cavgss, Mean",[1]; [10],429 ng/mL
same,"Cl/F, Geometric Mean",[1]; [10],230000.0 mL/h
same,"Cmax, Geometric Mean",[1]; [10],776.0 ng/mL
same,"Cminss, Mean",[1]; [10],194 ng/mL
same,"T1/2, Mean",[1]; [10],4.4 h
same,"Vz/F, Geometric Mean",[1]; [10],1532500.0 mL
same,median Tmax,"[1]; multiple doses, range over cohorts",1 to 3 h
same,mean half-life,"[1]; multiple oral doses, range over cohorts",3.9 to 5.4 h
same,median Tmax,[1]; recommended dose of 700 mg BID,2 h
same,inhibitory activity on the hERG channel,[2],without inhibitory activity
